Data reported in article PMC8419995, “In vitro and in vivo efficacy of thiacloprid against Echinococcus multilocularis” (Parasites & Vectors, 2021).
Like-named read-outs stand apart in the source and are kept apart here.

Legend:
[1] = system: Reuber rat hepatoma (RH) cells; test: alamarBlue cytotoxicity assay, RH cells; type: cell-based; conditions: 120 h, 5 days
Procedure: An alamarBlue assay was used to assess the toxicity of thiacloprid to confluent and pre-confluent mammalian cells in vitro [29]. Human foreskin fibroblasts (HFF, Procell) and rat hepatoma cells (RH, Procell) were seeded into 96-well cell culture plates in DMEM supplemented with 10% FBS and 1% penicillin–streptomycin at 37 °C and 5% CO2. For detecting the growth inhibitory effects of confluent cells, HFF and RH cells were seeded at 10,000 cells per well and 50,000 cells per well, respectively. After overnight culture, thiacloprid or PZQ was added and diluted in serial concentrations (0, 0.6, 1.2, 2.5, 5, 10, 20, 40, 80 and 160 μM). For detecting growth inhibitory effects on proliferating cells, cells were seeded at 1000 (HFF) and 5000 (RH) cells per well. Thiacloprid was added after 5 h of cell attachment. To measure the viability of the cells after treatment for 5 days, the alamarBlue assay was employed and viability calculated as described previously.

[2] = system: T lymphocyte subsets in metacestodes and spleen; test: T lymphocyte subset analysis and spleen index in infected mice; type: in vivo; conditions: infected BALB/c mice; 6 weeks oral treatment; flow cytometry
Procedure: In vitro-grown metacestode vesicles were pressed through a 500 µm mesh and washed three times with sterile PBS. The parasite tissue was then taken up in an equal volume of sterile PBS. Each mouse was intraperitoneally injected with 200 μl suspension. Seven mice were injected with 200 μl PBS as the control group. Twenty-eight infected mice were randomly distributed into four groups (7 mice/group): the untreated group was not administered any drug; the ABZ group was treated with ABZ orally (100 mg/kg/day); and the Thia15 group and Thia30 group received thiacloprid orally (15 mg/kg/day and 30 mg/kg/day). Treatments of mice started 2 weeks post-infection, and treatments were administered daily for 6 weeks. […] All metacestode tissues were collected, and the total wet weight of metacestodes per mice was determined. Furthermore, the content of cytokines in microcyst fluid was detected by enzyme-linked immunosorbent assay (ELISA). […]
The spleens of mice were removed and then weighed to calculate the spleen index. […] The lymphocytes were incubated with FITC-conjugated anti-CD3 (BioLegend, San Diego, CA, USA), PE-conjugated anti-CD4 (BioLegend), and APC-conjugated anti-CD8 (BioLegend) antibodies, and then analyzed by flow cytometry using a NovoCyte flow cytometer (ACEA/Agilent, Santa Clara, CA, USA).

[3] = system: E. multilocularis protoscoleces and germinal cells; test: Glucose consumption (2-deoxyglucose uptake); type: cell-based, Echinococcus multilocularis
Procedure: Glucose consumption in E. multilocularis protoscoleces and germinal cells was detected using the Screen Quest Colorimetric Glucose Uptake Assay Kit (AAT Bioquest, Sunnyvale, CA, USA). The newly separated protoscoleces were washed twice with Krebs–ringer phosphate HEPES (KRPH) buffer and then resuspended in 1 ml glucose uptake buffer for 1 h. Each well contained about 200 protoscoleces. Isolated E. multilocularis germinal cells were resuspended with serum-free DMEM and cultured overnight in nitrogen at 37 °C. Germinal cells were then washed twice with KPRH buffer and resuspended in 90 μl glucose uptake buffer for 1 h. Subsequently, the protoscoleces and germinal cells were added with 10 μl thiacloprid (5 μM) for 1 h, and treated with 10 μl 2-deoxyglucose (2DG) for 1 h. The germinating cells treated with thiacloprid were labeled with mitochondria red fluorescent probe (Beyotime, Shanghai, China) and the percentage of living cells was measured by flow cytometry. The protoscoleces and germinal cells were washed twice with KRPH buffer and then lysed with 25 μl acidic lysis buffer in an Eppendorf tube (EP) for 30 min. A neutralizing buffer was added to each well and left at room temperature for 20 min to neutralize the lysate. […] Lastly, the mixture was transferred to a 96-well cell culture plate and the absorbance was measured at 570 nm using an Infinite M200 PRO reader (Tecan). […]

For `N#C/N=C1\SCCN1Cc1ccc(Cl)nc1` [thiacloprid], the IC50 ([1]; confluent cells, read-out: IC50 on confluent RH cells) was 91.4 ± 1.33 µM, the IC50 ([1]; pre-confluent cells, read-out: IC50 on pre-confluent RH cells) was 74.3 ± 10.8 µM and the “CD4+ T lymphocytes in the metacestodes and spleen compared with the untreated group” value [2] was “increased”. For the same compound, the “CD8+ T lymphocytes in the metacestodes and spleen compared with the untreated group” value [2] was “decreased”, the “Uptake of 2-DG by protoscoleces and germinal cells” value ([3]; 5 μM, 1 h) was “reduced uptake” and the “Viability of protoscoleces and germinal cells” value ([3]; treatment for 1 h) was “not affected”.
